Assay results: PMC11247081 (Signal Transduction and Targeted Therapy, 2024)

Assays:
[1] = pre-clinical studies; cited from earlier work
[2] = pre-clinical studies; cited from earlier work; remark: listed apart in the source
[3] = Pharmacokinetics of SHR-A1811, total antibody and free payload (non-compartmental); settings: for Tmax: median (range)
HER2-mutant NSCLC = settings: pretreated patients with HER2-mutant NSCLC; cited from earlier work
[4] = multiple dosing (cycle 3), SHR-A1811 […] (n=3), PK data available for 1 patient
[5] = single dosing (cycle 1), SHR-A1811 8.0 mg/kg (n=3), mean (SD)

CC[C@@]1(O)C(=O)OCc2c1cc1n(c2=O)Cc2c-1nc1cc(F)c(C)c3c1c2[C@@H](NC(=O)[C@H](O)C1CC1)CC3 [Free payload]
membrane permeability compared with the payload of T-DXd [1]: superior
cytotoxicity compared with the payload of T-DXd [2]: superior
exposure (Cmax, AUC0−21d, AUC0−t, and AUC0−∞) versus dose ([3]; after single dosing, over the tested dose range): increased in a dose-dependent manner
plasma exposure compared with ADC and TAb ([3]; all studied dose levels): much lower
t1/2 [3, 4]: 5.6 (NC) day
Tmax [3, 4]: 0.105 (0.1050-0.1050) day
t1/2 ([3]; multiple dosing (cycle 3), SHR-A1811 […] (n=3), mean (SD)): 5.7 (0.5) day
Tmax ([3]; multiple dosing (cycle 3), SHR-A1811 […] (n=3)): 0.124 (0.1150-0.1320) day
t1/2 ([3]; multiple dosing (cycle 3), SHR-A1811 […] (n=10), mean (SD)): 6.5 (1.6) day
Tmax ([3]; multiple dosing (cycle 3), SHR-A1811 […] (n=10)): 0.117 (0.1050-0.1190) day
t1/2 ([3]; multiple dosing (cycle 3), SHR-A1811 […] (n=41), mean (SD)): 6.3 (1.0) day
Tmax ([3]; multiple dosing (cycle 3), SHR-A1811 […] (n=41)): 0.104 (0.0806-7.0200) day
AUC0-21d [3, 5]: 23.5 (7.4) day·ng/mL
AUC0-t [3, 5]: 22.8 (6.2) day·ng/mL
AUC0-∞ [3, 5]: 25.2 (7.6) day·ng/mL
Cmax [3, 5]: 3.9 (1.0) ng/mL
MRT [3, 5]: 7.6 (1.8) day
t1/2 [3, 5]: 5.5 (1.1) day
Tmax ([3]; single dosing (cycle 1), SHR-A1811 8.0 mg/kg (n=3)): 1.0600 (0.3960-1.0600) day
t1/2 ([3]; single dosing (cycle 1), SHR-A1811 […] (n=10), mean (SD)): 5.9 (1.1) day
Tmax ([3]; single dosing (cycle 1), SHR-A1811 […] (n=10)): 0.3990 (0.1470-1.0200) day
t1/2 ([3]; single dosing (cycle 1), SHR-A1811 […] (n=41), mean (SD)): 5.2 (0.6) day
Tmax ([3]; single dosing (cycle 1), SHR-A1811 […] (n=41)): 0.3960 (0.0236-1.0600) day

Trastuzumab emtansine [T-DM1]
ORR (HER2-mutant NSCLC): 44%
median DoR (HER2-mutant NSCLC): 4 months
